Experimental data: the supplement of paper PMC13207355
Structures can show the parent of a compound that is named as a salt.

Assays:
Conditions in all cases: exposure time: 72 h
[1] = tested on: FT3469 (normal neural stem cell line); assay: surviving fraction (nuclei count normalised to DMSO); higher = more cells surviving (less toxic)
[2] = tested on: E13 (patient-derived glioblastoma stem cells of classical subtype); assay: as above
[3] = tested on: E28 (patient-derived glioblastoma stem cells of classical subtype); assay: as above
[4] = tested on: E57 (patient-derived glioblastoma stem cells of mesenchymal subtype); assay: as above
[5] = tested on: E34 (patient-derived glioblastoma stem cells of proneural subtype); assay: as above
[6] = tested on: E21 (patient-derived glioblastoma stem cells of mesenchymal subtype); assay: as above
[7] = tested on: E31 (patient-derived glioblastoma stem cells of proneural subtype); assay: as above
[8] = tested on: FT3469; assay: phenotypic distance (Euclidean, principal components) from DMSO controls (arbitrary units); higher = stronger morphological change
[9] = tested on: E13; assay: as above
[10] = tested on: E28; assay: as above
[11] = tested on: E57; assay: as above
[12] = tested on: E34; assay: as above
[13] = tested on: E21; assay: as above
[14] = tested on: E31; assay: as above
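Wherever phenotypic distance (Euclidean, principal components) from DMSO controls is given: cell Painting imaging in 384-well plates, CellProfiler features reduced to at least 20 principal components, Euclidean distance versus same-plate DMSO vehicle wells (0.1% v/v), median over six images per well.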
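Wherever surviving fraction (nuclei count normalised to DMSO) is given: nuclei counted by high-content imaging of Hoechst-stained cells in laminin-coated 384-well plates, relative to 0.1% DMSO vehicle wells, with staurosporine as cell-death control.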

Question: Which results are given for `CC(C)C[C@H]1C(=O)N2CCC[C@H]2[C@]2(O)O[C@](NC(=O)[C@@H]3C=C4c5cccc6[nH]c(Br)c(c56)C[C@H]4N(C)C3)(C(C)C)C(=O)N12` [Bromocryptine mesylate]?
Answer: surviving fraction ([1]; 4.1 nM): 0.76; surviving fraction ([1]; 12.3 nM): 0.909; surviving fraction ([1]; 37 nM): 1.01; surviving fraction ([1]; 111.1 nM): 0.932; surviving fraction ([1]; 333.3 nM): 0.984; surviving fraction ([1]; 1000 nM): 1.01; surviving fraction ([1]; 3000 nM): 0.912; surviving fraction ([2]; 4.1 nM): 0.907; surviving fraction ([2]; 12.3 nM): 0.944; surviving fraction ([2]; 37 nM): 0.958; surviving fraction ([2]; 111.1 nM): 0.816; surviving fraction ([2]; 333.3 nM): 0.981; surviving fraction ([2]; 1000 nM): 0.976; surviving fraction ([2]; 3000 nM): 0.8; surviving fraction ([3]; 4.1 nM): 1.1; surviving fraction ([3]; 12.3 nM): 1.07; surviving fraction ([3]; 37 nM): 1.07; surviving fraction ([3]; 111.1 nM): 1.12; surviving fraction ([3]; 333.3 nM): 0.978; surviving fraction ([3]; 1000 nM): 1.05; surviving fraction ([3]; 3000 nM): 0.779; surviving fraction ([4]; 4.1 nM): 0.932; surviving fraction ([4]; 12.3 nM): 1.13; surviving fraction ([4]; 37 nM): 0.893; surviving fraction ([4]; 111.1 nM): 1.05; surviving fraction ([4]; 333.3 nM): 1.01; surviving fraction ([4]; 1000 nM): 0.91; surviving fraction ([4]; 3000 nM): 0.777; surviving fraction ([5]; 4.1 nM): 0.907; surviving fraction ([5]; 12.3 nM): 0.846; surviving fraction ([5]; 37 nM): 0.967; surviving fraction ([5]; 111.1 nM): 1.16; surviving fraction ([5]; 333.3 nM): 0.879; surviving fraction ([5]; 1000 nM): 1.05; surviving fraction ([5]; 3000 nM): 0.727; surviving fraction ([6]; 4.1 nM): 1.06; surviving fraction ([6]; 12.3 nM): 1.02; surviving fraction ([6]; 37 nM): 1.05; surviving fraction ([6]; 111.1 nM): 0.989; surviving fraction ([6]; 333.3 nM): 1; surviving fraction ([6]; 1000 nM): 0.969; surviving fraction ([6]; 3000 nM): 0.967; surviving fraction ([7]; 4.1 nM): 1.07; surviving fraction ([7]; 12.3 nM): 1.06; surviving fraction ([7]; 37 nM): 0.944; surviving fraction ([7]; 111.1 nM): 1.15; surviving fraction ([7]; 333.3 nM): 1.03; surviving fraction ([7]; 1000 nM): 1.13; surviving fraction ([7]; 3000 nM): 0.897; phenotypic distance ([8]; 4.1 nM): 1.05; phenotypic distance ([8]; 12.3 nM): 1.08; phenotypic distance ([8]; 37 nM): 0.956; phenotypic distance ([8]; 111.1 nM): 0.691; phenotypic distance ([8]; 333.3 nM): 0.43; phenotypic distance ([8]; 1000 nM): 0.442; phenotypic distance ([8]; 3000 nM): 0.73; phenotypic distance ([9]; 4.1 nM): 0.797; phenotypic distance ([9]; 12.3 nM): 0.698; phenotypic distance ([9]; 37 nM): 0.44; phenotypic distance ([9]; 111.1 nM): 1.07; phenotypic distance ([9]; 333.3 nM): 0.683; phenotypic distance ([9]; 1000 nM): 1.03; phenotypic distance ([9]; 3000 nM): 1.57; phenotypic distance ([10]; 4.1 nM): 1.04; phenotypic distance ([10]; 12.3 nM): 0.531; phenotypic distance ([10]; 37 nM): 0.575; phenotypic distance ([10]; 111.1 nM): 0.661; phenotypic distance ([10]; 333.3 nM): 0.642; phenotypic distance ([10]; 1000 nM): 0.784; phenotypic distance ([10]; 3000 nM): 1.28; phenotypic distance ([11]; 4.1 nM): 0.496; phenotypic distance ([11]; 12.3 nM): 0.874; phenotypic distance ([11]; 37 nM): 0.757; phenotypic distance ([11]; 111.1 nM): 5.36; phenotypic distance ([11]; 333.3 nM): 0.51; phenotypic distance ([11]; 1000 nM): 0.474; phenotypic distance ([11]; 3000 nM): 1.74; phenotypic distance ([12]; 4.1 nM): 0.67; phenotypic distance ([12]; 12.3 nM): 0.914; phenotypic distance ([12]; 37 nM): 0.493; phenotypic distance ([12]; 111.1 nM): 0.843; phenotypic distance ([12]; 333.3 nM): 1.2; phenotypic distance ([12]; 1000 nM): 0.94; phenotypic distance ([12]; 3000 nM): 1.28; phenotypic distance ([13]; 4.1 nM): 0.67; phenotypic distance ([13]; 12.3 nM): 0.901; phenotypic distance ([13]; 37 nM): 0.972; phenotypic distance ([13]; 111.1 nM): 0.667; phenotypic distance ([13]; 333.3 nM): 0.353; phenotypic distance ([13]; 1000 nM): 0.811; phenotypic distance ([13]; 3000 nM): 0.593; phenotypic distance ([14]; 4.1 nM): 0.381; phenotypic distance ([14]; 12.3 nM): 0.548; phenotypic distance ([14]; 37 nM): 0.581; phenotypic distance ([14]; 111.1 nM): 0.404; phenotypic distance ([14]; 333.3 nM): 0.658; phenotypic distance ([14]; 1000 nM): 0.705; phenotypic distance ([14]; 3000 nM): 0.828
